# Laboratory results published in paper PMC9996372, “Aim18p and Aim46p are chalcone isomerase domain–containing mitochondrial hemoproteins in Saccharomyces cerevisiae” (The Journal of Biological Chemistry, 2023).
# Key:
# [1] = target: T1, AtFAP1-Nd45-WT (Arabidopsis thaliana, UniProt Q9M1X2); conditions: 5 μM protein, 50 μM fatty acid, 100 mM Hepes pH 7.5, 150 mM NaCl, 1 h at RT; versus DMSO
# T1 construct: gene FAP1
# [2] = target: T2, AtCHI1-FL-WT (Arabidopsis thaliana, UniProt P41088); experiment: chalcone isomerase assay, depletion of A381; format: biochemical; conditions: 10 nM protein, 200 μM naringenin chalcone, 50 mM Hepes pH 7.5, 150 mM NaCl, 5% EtOH; product naringenin
# T2 construct: gene CHI1; full-length; N-terminal 8X-His tag
# T2 sequence (P41088 1-246): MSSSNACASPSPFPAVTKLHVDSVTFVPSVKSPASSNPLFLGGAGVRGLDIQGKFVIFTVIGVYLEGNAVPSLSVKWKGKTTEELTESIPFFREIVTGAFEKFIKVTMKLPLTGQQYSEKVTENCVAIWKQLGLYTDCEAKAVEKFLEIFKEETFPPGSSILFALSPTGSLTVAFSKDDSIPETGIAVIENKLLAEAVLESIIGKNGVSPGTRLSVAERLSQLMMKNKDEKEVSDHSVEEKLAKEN
# T1 sequence (Q9M1X2 46-279): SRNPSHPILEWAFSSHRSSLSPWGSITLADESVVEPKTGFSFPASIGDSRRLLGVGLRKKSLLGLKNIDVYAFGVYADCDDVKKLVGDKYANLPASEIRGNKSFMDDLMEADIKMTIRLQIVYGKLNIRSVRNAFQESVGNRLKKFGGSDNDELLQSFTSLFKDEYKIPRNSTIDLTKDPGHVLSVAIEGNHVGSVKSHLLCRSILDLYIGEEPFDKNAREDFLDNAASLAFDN
Structure (SMILES),ΔTm [1],"chalcone isomerase assay, depletion of A381 [2]"
CC/C=C\C/C=C\C/C=C\CCCCCCCC(=O)O [Linolenic acid],AtFAP1-Nd45-WT was the only protein stabilized by the addition of linolenic acid,
O=C(/C=C/c1ccc(O)cc1)c1c(O)cc(O)cc1O [naringenin chalcone],,Only AtCHI-WT rapidly converted naringenin chalcone to naringenin
